Values joined by “and” are separate entries in the source; they are usually repeats but may differ in a detail not shown here. Equal values may be shown once. Toxic doses and inconclusive results are not listed.
Test system: L1210 leukemia ip in BDF1 mice, survival T/C
Assay: NCI In Vivo Anticancer Drug Screen. Data for tumor model L1210 Leukemia (intraperitoneal) in B6D2F1 (BDF1) mice
Details: endpoint: mean survival time, higher = longer survival
Procedure, shortened: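 Antitumor effect is assessed in tumor-bearing animals. Survival in the compound arm is compared with a vehicle-dosed control arm and expressed as their quotient.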

O=C(O)c1[nH]c(=O)[nH]c(=O)c1F
T/C (dose: 0.09 mg/kg/injection, schedule: Q01DX005 (oral), vehicle: saline): 112 % of control | T/C (dose: 0.18 mg/kg/injection, schedule: Q01DX005 (oral), vehicle: saline): 108 % of control | T/C (dose: 0.18 mg/kg/injection, schedule: Q01DX015 (ip), vehicle: saline): 115 % of control | T/C (dose: 0.37 mg/kg/injection, schedule: Q01DX005 (oral), vehicle: saline): 115 % of control | T/C (dose: 0.37 mg/kg/injection, schedule: Q01DX015 (ip), vehicle: saline): 157 % of control | T/C (dose: 0.63 mg/kg/injection, schedule: Q01DX015 (ip), vehicle: carboxymethylcellulose (CMC)): 105 % of control | T/C (dose: 0.75 mg/kg/injection, schedule: Q01DX005 (oral), vehicle: saline): 120 % of control | T/C (dose: 0.75 mg/kg/injection, schedule: Q01DX015 (ip), vehicle: saline): 188 % of control | T/C (dose: 0.75 mg/kg/injection, schedule: Q01DX015 (oral), vehicle: saline): 115 % of control | T/C (dose: 0.75 mg/kg/injection, schedule: Q## X003 (oral), vehicle: saline): 101 % of control | T/C (dose: 0.75 mg/kg/injection, schedule: Q## X024 (oral), vehicle: saline): 112 % of control | T/C (dose: 1.0 mg/kg/injection, schedule: Q01DX009 (ip), vehicle: saline with Tween-80): 114 % of control | T/C (dose: 1.0 mg/kg/injection, schedule: Q01DX009 (ip), vehicle: saline): 113 % of control | T/C (dose: 1.25 mg/kg/injection, schedule: Q01DX009 (ip), vehicle: saline): 97 % of control and 111 % of control | T/C (dose: 1.25 mg/kg/injection, schedule: Q01DX015 (ip), vehicle: carboxymethylcellulose (CMC)): 111 % of control | T/C (dose: 1.3 mg/kg/injection, schedule: Q## X008 (oral), vehicle: saline): 111 % of control | T/C (dose: 1.5 mg/kg/injection, schedule: Q01DX006 (iv), vehicle: saline): 112 % of control | T/C (dose: 1.5 mg/kg/injection, schedule: Q01DX009 (oral), vehicle: saline): 114 % of control | T/C (dose: 1.5 mg/kg/injection, schedule: Q01DX015 (im), vehicle: saline): 117 % of control | T/C (dose: 1.5 mg/kg/injection, schedule: Q01DX015 (sc), vehicle: saline): 120 % of control | T/C (dose: 1.5 mg/kg/injection, schedule: Q## X003 (oral), vehicle: saline): 104 % of control | T/C (dose: 1.5 mg/kg/injection, schedule: Q## X024 (oral), vehicle: saline): 113 % of control | T/C (dose: 2.5 mg/kg/injection, schedule: Q01DX009 (ip), vehicle: saline): 117 % of control | T/C (dose: 2.5 mg/kg/injection, schedule: Q01DX015 (ip), vehicle: carboxymethylcellulose (CMC)): 122 % of control | T/C (dose: 2.6 mg/kg/injection, schedule: Q## X008 (oral), vehicle: saline): 114 % of control | T/C (dose: 3.0 mg/kg/injection, schedule: Q01DX005 (oral), vehicle: saline): 157 % of control | T/C (dose: 3.0 mg/kg/injection, schedule: Q01DX006 (iv), vehicle: saline): 120 % of control | T/C (dose: 3.0 mg/kg/injection, schedule: Q01DX009 (ip), vehicle: saline): 165 % of control | T/C (dose: 3.0 mg/kg/injection, schedule: Q01DX015 (ip), vehicle: saline): 191 % of control | T/C (dose: 3.0 mg/kg/injection, schedule: Q01DX015 (oral), vehicle: saline): 157 % of control | T/C (dose: 3.0 mg/kg/injection, schedule: Q## X003 (oral), vehicle: saline): 103 % of control | T/C (dose: 4.0 mg/kg/injection, schedule: Q01DX009 (ip), vehicle: saline with Tween-80): 161 % of control | T/C (dose: 4.0 mg/kg/injection, schedule: Q01DX009 (ip), vehicle: saline): 165 % of control | T/C (dose: 5.0 mg/kg/injection, schedule: Q01DX009 (ip), vehicle: saline): 155 % of control | T/C (dose: 5.0 mg/kg/injection, schedule: Q01DX015 (ip), vehicle: carboxymethylcellulose (CMC)): 155 % of control | T/C (dose: 5.0 mg/kg/injection, schedule: Q01DX Z (ip), vehicle: methylcellulose (MC)): 119 % of control | T/C (dose: 5.2 mg/kg/injection, schedule: Q## X008 (oral), vehicle: saline): 119 % of control | T/C (dose: 6.0 mg/kg/injection, schedule: Q01DX005 (oral), vehicle: saline): 174 % of control | T/C (dose: 6.0 mg/kg/injection, schedule: Q01DX006 (iv), vehicle: saline): 121 % of control | T/C (dose: 6.0 mg/kg/injection, schedule: Q01DX009 (ip), vehicle: saline): 211 % of control | T/C (dose: 6.0 mg/kg/injection, schedule: Q01DX015 (im), vehicle: saline): 179 % of control | T/C (dose: 6.0 mg/kg/injection, schedule: Q01DX015 (ip), vehicle: saline): 164 % of control | T/C (dose: 6.0 mg/kg/injection, schedule: Q01DX015 (oral), vehicle: saline): 191 % of control | T/C (dose: 6.0 mg/kg/injection, schedule: Q01DX015 (sc), vehicle: saline): 182 % of control | T/C (dose: 6.0 mg/kg/injection, schedule: Q## X003 (oral), vehicle: saline): 113 % of control | T/C (dose: 6.0 mg/kg/injection, schedule: Q## X024 (oral), vehicle: saline): 157 % of control | T/C (dose: 7.0 mg/kg/injection, schedule: Q01DX015 (ip), vehicle: carboxymethylcellulose (CMC)): 189 % of control | T/C (dose: 8.0 mg/kg/injection, schedule: Q01DX009 (ip), vehicle: saline): 188 % of control | T/C (dose: 10.0 mg/kg/injection, schedule: Q01DX009 (ip), vehicle: saline): 188 % of control and 206 % of control | T/C (dose: 10.5 mg/kg/injection, schedule: Q01DX001 (oral), vehicle: saline): 111 % of control | T/C (dose: 11.0 mg/kg/injection, schedule: Q01DX015 (ip), vehicle: carboxymethylcellulose (CMC)): 214 % of control | T/C (dose: 11.0 mg/kg/injection, schedule: Q01DX Z (ip), vehicle: methylcellulose (MC)): 109 % of control | T/C (dose: 12.0 mg/kg/injection, schedule: Q01DX006 (iv), vehicle: saline): 153 % of control | T/C (dose: 12.0 mg/kg/injection, schedule: Q01DX009 (ip), vehicle: saline): 100 % of control and 101 % of control | T/C (dose: 12.0 mg/kg/injection, schedule: Q01DX015 (im), vehicle: saline): 162 % of control | T/C (dose: 12.0 mg/kg/injection, schedule: Q01DX015 (ip), vehicle: saline): 155 % of control | T/C (dose: 12.0 mg/kg/injection, schedule: Q01DX015 (sc), vehicle: saline): 171 % of control | T/C (dose: 12.0 mg/kg/injection, schedule: Q## X024 (oral), vehicle: saline): 154 % of control | T/C (dose: 12.0 mg/kg/injection, schedule: Q## X040 (oral), vehicle: saline): 87 % of control | T/C (dose: 16.0 mg/kg/injection, schedule: Q01DX009 (ip), vehicle: saline): 107 % of control | T/C (dose: 16.0 mg/kg/injection, schedule: Q01DX015 (ip), vehicle: carboxymethylcellulose (CMC)): 183 % of control | T/C (dose: 21.0 mg/kg/injection, schedule: Q01DX001 (oral), vehicle: saline): 106 % of control | T/C (dose: 24.0 mg/kg/injection, schedule: Q01DX009 (ip), vehicle: saline): 110 % of control | T/C (dose: 24.0 mg/kg/injection, schedule: Q01DX009 (oral), vehicle: saline): 112 % of control | T/C (dose: 24.0 mg/kg/injection, schedule: Q01DX015 (im), vehicle: saline): 120 % of control | T/C (dose: 24.0 mg/kg/injection, schedule: Q01DX015 (ip), vehicle: saline): 114 % of control | T/C (dose: 24.0 mg/kg/injection, schedule: Q01DX015 (oral), vehicle: saline): 104 % of control | T/C (dose: 24.0 mg/kg/injection, schedule: Q## X024 (oral), vehicle: saline): 156 % of control | T/C (dose: 32.0 mg/kg/injection, schedule: Q04DX003 (ip), vehicle: saline): 178 % of control | T/C (dose: 48.0 mg/kg/injection, schedule: Q01DX006 (iv), vehicle: saline): 183 % of control | T/C (dose: 48.0 mg/kg/injection, schedule: Q01DX009 (ip), vehicle: saline): 88 % of control | T/C (dose: 48.0 mg/kg/injection, schedule: Q01DX009 (oral), vehicle: saline): 101 % of control | T/C (dose: 48.0 mg/kg/injection, schedule: Q01DX015 (im), vehicle: saline): 95 % of control and 112 % of control | T/C (dose: 48.0 mg/kg/injection, schedule: Q01DX015 (ip), vehicle: carboxymethylcellulose (CMC)): 120 % of control | T/C (dose: 48.0 mg/kg/injection, schedule: Q01DX015 (ip), vehicle: saline): 101 % of control and 114 % of control | T/C (dose: 48.0 mg/kg/injection, schedule: Q01DX015 (oral), vehicle: saline): 97 % of control | T/C (dose: 48.0 mg/kg/injection, schedule: Q01DX015 (sc), vehicle: saline): 106 % of control and 108 % of control | T/C (dose: 48.0 mg/kg/injection, schedule: Q## X003 (oral), vehicle: saline): 158 % of control | T/C (dose: 48.0 mg/kg/injection, schedule: Q## X024 (oral), vehicle: saline): 109 % of control | T/C (dose: 64.0 mg/kg/injection, schedule: Q04DX003 (ip), vehicle: saline): 193 % of control | T/C (dose: 84.0 mg/kg/injection, schedule: Q01DX001 (oral), vehicle: saline): 121 % of control | T/C (dose: 96.0 mg/kg/injection, schedule: Q01DX006 (iv), vehicle: saline): 106 % of control | T/C (dose: 96.0 mg/kg/injection, schedule: Q01DX015 (im), vehicle: saline): 86 % of control | T/C (dose: 96.0 mg/kg/injection, schedule: Q01DX015 (oral), vehicle: saline): 87 % of control | T/C (dose: 96.0 mg/kg/injection, schedule: Q## X024 (oral), vehicle: saline): 98 % of control | T/C (dose: 192.0 mg/kg/injection, schedule: Q01DX006 (iv), vehicle: saline): 104 % of control | T/C (dose: 192.0 mg/kg/injection, schedule: Q01DX015 (oral), vehicle: saline): 87 % of control | T/C (dose: 356.0 mg/kg/injection, schedule: Q## X008 (oral), vehicle: saline): 111 % of control | T/C (dose: 384.0 mg/kg/injection, schedule: Q01DX006 (iv), vehicle: saline): 86 % of control | T/C (dose: 384.0 mg/kg/injection, schedule: Q## X003 (oral), vehicle: saline): 122 % of control | T/C (dose: 712.0 mg/kg/injection, schedule: Q01DX001 (oral), vehicle: saline): 150 % of control | T/C (dose: 768.0 mg/kg/injection, schedule: Q## X003 (oral), vehicle: saline): 108 % of control | T/C (dose: 1000.0 mg/kg/injection, schedule: Q01DX001 (oral), vehicle: saline): 160 % of control | T/C (dose: 1000.0 mg/kg/injection, schedule: Q## X003 (oral), vehicle: saline): 103 % of control

Source: PubChem BioAssay AID248 (DTP/NCI, 2004)
